From patent US20230390287A1, “MODULATORS OF PD-L1/PD-1 INTERACTION AND USES THEREOF” (Ramot at Tel-Aviv University Ltd., priority 2021, published 2023)

Legend:
MDA-MB-231 cells = test: MTT cell viability, MDA-MB-231; assay type: cell-based, human; conditions: 1, 10, 100 μM, 48 hours
Experimental: (§1) For the MTT assays, cells were seeded in 96-multi-well plate at a concentration of 7,000 cells per well. Six hours after seeding, cells were treated with the compounds and DMSO as a negative control. Forty-eight hours after the addition of the compounds, 20 μl of MTT (Sigma-Aldrich) dissolved in 5 mg/ml of PBS were added to each well and incubated for 2 hours at 37° C. Solutions were removed, and 100 μl of DMSO were added to each well and gently mixed on a shaker. The absorbance of control and treated wells was read against a DMSO blank at 570 nm using an Epoch micro-plate reader (Biotek). Each hit compound was tested in three replicates, in three independent experiments.
(§2) Human breast cancer MDA-MB-231 and melanoma A375 cells were exposed to increasing concentrations (1, 10, and 100 μM) of selected compounds for 48 hours. Cell viability was normalized to untreated cells. Three different concentrations 100 μM (blue), 10 μM (green) and 1 μM (gray) were tested. Data are presented as mean±SD, N=3, n=3 and N=1, n=3, from three or one independent experiment(s) performed in triplicate.

PD-1/PD-L1 interaction = PD-1/PD-L1 interaction (Homo sapiens (Human), UniProt Q9NZQ7); test: HTRF PD-1/PD-L1 binding assay; assay type: biochemical; design: key to HTF assay (100 μM): +: positive compounds using 100 μM on HTRF; conditions: for HTF assay (100 μM): compounds at 100 μM, hits defined as at least 50% inhibition of PD-1/PD-L1 interaction; for dose-response effect in HTRF: 8 doses starting from 100 μM
Chain of PD-1/PD-L1 interaction (Q9NZQ7 19-238): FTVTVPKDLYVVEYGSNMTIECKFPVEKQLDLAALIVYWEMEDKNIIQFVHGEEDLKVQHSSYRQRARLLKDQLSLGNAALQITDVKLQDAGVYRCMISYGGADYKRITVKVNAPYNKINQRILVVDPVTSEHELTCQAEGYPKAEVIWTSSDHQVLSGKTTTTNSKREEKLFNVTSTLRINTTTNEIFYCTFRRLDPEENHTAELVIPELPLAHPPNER

A375 cells = test: MTT cell viability, A375; assay type: cell-based, human; conditions: 1, 10, 100 μM, 48 hours
Experimental: as §1, §2

recombinant human PD-L1 = recombinant human PD-L1 (Homo sapiens (Human), UniProt Q9NZQ7); test: Differential scanning fluorimetry (DSF) thermal denaturation; assay type: binding; conditions: for thermal shift / stabilization of PD-L1: 100 μM compound, 1% DMSO
Chain of recombinant human PD-L1 (Q9NZQ7 19-238): as above
Experimental: DSF was performed in a C1000 Touch thermal cycler equipped with a CFX96 optical reaction module (Bio Rad). For all fluorescence measurements, samples contained recombinant human PD-L1 (ThermoFisher) at 500 μg/ml in phosphate buffered saline (PBS), pH 7.4, 5% (m/v) Mannitol, 5% (m/v) Trehalose, 0.02% (v/v) Tween® 80, 2.5-fold SYPRO® Orange, 1% (v/v) DMSO (Sigma-Aldrich) and 100 μM of each compound. The PCR plate was sealed with Optical-Quality Sealing Tape (Bio-Rad) and centrifuged at 300 g for 5 minutes. The DSF assay was carried out by increasing the temperature from 20 to 90° C., with a 1 second hold time every 0.2° C. and fluorescence acquisition using the FRET channel, after an initial incubation step of 10 minutes at 20° C. Control experiments in the absence of DMSO and/or compounds were routinely performed in each microplate.
Data were processed using CFX Manager Software V3.0 (Bio-Rad) and the GraphPad Prism 7. Temperature scan curves were fitted to a dose-response sigmoid function (Boltzmann equation) and the melting temperature (Tm values) were obtained from the midpoint of the transition. Normalization of the RFU was also performed to prevent distraction due to different maximum and minimum values upon compounds treatment. The RFU values from different data sets were converted to a common scale 0-1, where 0 represents the fluorescence of the native protein and 1 the fluorescence of the denatured protein. To monitor the binding properties towards each compound, DSF assays were run in the absence and presence of 100 μM compounds using 1% (v/v) DMSO as vehicle control.
To test this hypothesis, the melting temperature (Tm) of the PD-L1 was determined in thermal denaturation assays by differential scanning fluorimetry (DSF) and checked for a shift in the proteins' Tm (ΔTm) in the presence of the PD-L1 inhibitor candidates. The extent of temperature shift is proportional to the compounds' stabilizing effect and thereby used to infer inhibitors' affinity.

[1] = tested on: PD-1/PD-L1 interaction on MDA-MB-231 cells; test: Cell-based PD-1/PD-L1 inhibition (accessible PD-L1 by flow cytometry), MDA-MB-231; design: species or system human; conditions: 10 μM, 72 hours
Experimental: (§3) PD-1/PD-L1 Inhibition on Human Melanoma and Breast Cancer Cell Lines:
(§4) Cells (0.1×10^6 cells) were tested for PD-1/PD-L1 inhibition by co-incubation of hit compounds, DMSO (background), BMS-202 (Selleckchem) and anti-human PD-L1 (BioxCell, Clone 29E.2A3) (positive controls) for 72 hours in 2 ml DMEM medium. Non-confluent cell cultures were scraped into single-cell suspension, washed with PBS, and counted. Cells were subsequently stained with PD-1 fluorescent proxy for 30 minutes at 4° C., washed twice and resuspended in FACS buffer. Cells were analyzed using BD LSRFortessa (BD Biosciences) and data analyzed with FlowJo software for Mac (FlowJo, LLC 2013-2016). Mean fluorescence intensity (MFI) was derived from each sample. The PD-1/PD-L1 inhibition in cells was measured by a decrease in MFI relative to background.
The selected cell lines were incubated with the selected compounds to assess compound-binding affinities, and consequently PD-1/PD-L1 inhibition. The levels of remaining accessible PD-L1 in these cells were evaluated by FACS analysis using a fluorescence PD-1 proxy. To understand compound activity, different incubation times (24, 48 and 72 hours) were evaluated on MDA-MB-231 breast cancer cell line.
(§5) The remaining accessible PD-L1 was determined by flow cytometry.

[2] = tested on: PD-1/PD-L1 interaction on A375 cells; test: Cell-based PD-1/PD-L1 inhibition (accessible PD-L1 by flow cytometry), A375; design: species or system human; conditions: A375 stimulated with IFN-γ; 10 μM; 72 hours
Experimental: as §3, §4, §5

[3] = Compound stability (no method given); assay type: physicochemical
[4] = HTRF dose-response starting from 100 μM
[5] = Table A, HTRF dose-response, NA = Not applicable (No dose-response effect)
[6] = Table B, HTRF dose-response, NA = no dose-response effect

Structure (SMILES) | IC50 (PD-1/PD-L1 interaction; [4]) [nM] | IC50 (PD-1/PD-L1 interaction; [5]) [nM] | IC50 (PD-1/PD-L1 interaction; [6]) [nM] | HTF assay (100 μM) (PD-1/PD-L1 interaction) | interference with the fluorescence-dye in DSF (recombinant human PD-L1) | thermal shift / stabilization of PD-L1 (recombinant human PD-L1) | dose-response effect in HTRF (PD-1/PD-L1 interaction) | stability of compound [3] | toxicity (cell viability, MTT) (MDA-MB-231 cells) | toxicity (cell viability, MTT) (A375 cells) | impact on PD-L1 accessibility / PD-1/PD-L1 interaction [1] | impact on PD-L1 accessibility / PD-1/PD-L1 interaction [2]
COc1nc(OCc2cccc(-c3ccccc3)c2C)ccc1CNCCNC(C)=O [BMS202, reference compound] |  |  |  |  |  |  |  |  | higher toxicity at the highest concentration | higher toxicity at the highest concentration | did not exhibit a significant impact | did not exhibit a significant impact
CCN(CC)CCNc1nc(NCCN(CC)CC)c2nc(-c3ccccc3)c(-c3ccccc3)nc2n1 [Compound 1] | 186 | 186 | 186 | + | revealed to interfere |  |  |  | toxicity higher or similar to that obtained for BMS202 | toxicity higher or similar to that obtained for BMS202 |  | 
CC1CCCCN1C(=O)NCCc1coc(-c2ccc(F)cc2)n1 (stereo not drawn) [Compound 32] |  |  |  | + |  |  | no dose-response was observed |  |  |  |  | 
CC1(C)OCC(C2OC3OC(C)(C)OC3C2NNC(=O)c2cc3cc(OCc4ccccc4)ccc3[nH]2)O1 (stereo not drawn) [Compound 71] | 380 | 380 | 380 | + | revealed to interfere |  |  |  |  |  |  | 
Cc1cc(SCC(=O)c2ccc3c(ccc4ccccc43)c2)cc(C)[o+]1.[Br-] [Compound 47] | 149 | 149 | 149 | + |  | stabilization of PD-L1 |  |  |  |  |  | 
CN(C)CCNC(=O)N1CCCN(c2ncnc3cc(-c4ccccc4)sc23)CC1 [Compound 35] |  |  |  | + |  |  | no dose-response was observed |  |  |  |  | 
N#Cc1nc(CC(=O)/C=C/c2ccccc2)c(CC(=O)/C=C/c2ccccc2)nc1C#N [Compound 18] | 190 | 190 | 190 | + |  |  |  | stability issues |  |  |  | 
O=C(NC1CC1)c1ccc(N2CCC(Cc3ccccc3)CC2)nc1 [Compound 38] |  |  |  | + |  |  | no dose-response was observed |  |  |  |  | 
Cc1nc(C)c(C(=O)NNC(=O)Cc2ccccc2)cc1C(=O)NNC(=O)Cc1ccccc1 [Compound 84] | 1090 | 1090 | 1090 | + |  | stabilization of PD-L1 |  |  |  |  |  | 
CN1CCN(S(=O)(=O)c2ccc(-c3ccc4c(Nc5ccc6nn[nH]c6c5)ccnc4c3)cc2)CC1 [Compound 29] | 4000 | 4000 | 4000 | + |  |  |  | stability issues |  |  |  | 

Continued, in another order:

IC50 (PD-1/PD-L1 interaction; [4]) [nM] | IC50 (PD-1/PD-L1 interaction; [5]) [nM] | IC50 (PD-1/PD-L1 interaction; [6]) [nM] | HTF assay (100 μM) (PD-1/PD-L1 interaction) | interference with the fluorescence-dye in DSF (recombinant human PD-L1) | thermal shift / stabilization of PD-L1 (recombinant human PD-L1) | dose-response effect in HTRF (PD-1/PD-L1 interaction) | stability of compound [3] | Structure (SMILES) | toxicity (cell viability, MTT) (MDA-MB-231 cells) | toxicity (cell viability, MTT) (A375 cells) | impact on PD-L1 accessibility / PD-1/PD-L1 interaction [1] | impact on PD-L1 accessibility / PD-1/PD-L1 interaction [2]
149 | 149 | 149 | + | revealed to interfere |  |  |  | O=C(c1ccc(-c2ccccc2)cc1)c1nc(-c2ccc(-c3ccccc3)cc2)c[nH]1 [Compound 73] | toxicity higher or similar to that obtained for BMS202 | toxicity higher or similar to that obtained for BMS202 |  | 
57 | 57 | 57 | + |  | stabilization of PD-L1 |  |  | CCCCCCCCSc1nc2ccc(/N=C\c3ccccc3O)cc2s1 [Compound 42] |  |  |  | 
1550 | 1550 | 1550 | + |  | stabilization of PD-L1 |  |  | Cc1cc(C)nc(NS(=O)(=O)c2ccc(NC(=O)c3cccnc3Nc3cccc(Cl)c3)cc2)n1 [Compound 75] | toxicity higher or similar to that obtained for BMS202 | toxicity higher or similar to that obtained for BMS202 |  | 
2440 | 2440 | 2440 | + |  | stabilization of PD-L1 |  |  | COc1ccc(-c2nc(N)nc(-c3cc(C)ccc3OC)c2Cl)cc1 [Compound 5] |  |  |  | 
596 | 596 | 596 | + |  |  |  |  | COc1ccc(-c2nc(N)nc(-c3cc(C)ccc3O)c2Cl)cc1 [Compound 45] |  |  |  | 
 |  |  | + |  |  | no dose-response was observed |  | CC(C)(C)OC(=O)N1CCN(c2cc(-c3ccc(Oc4ccccc4)cc3)n[nH]2)CC1 [Compound 30] |  |  |  | 
